# Several values for one entry are separate records, joined by “and”; a condition that tells them apart may be missing. Identical values can stand only once.
# Experiments:
# [1] = type: physicochemical
# Experimental: The water partition coefficient was reflected by the logP value of the fluorine-18-labeled peptides. 500 μL of octanol and 500 μL of pure water were added into an EP tube. 185 KBq (5 μCi) of fluorine-18-labeled peptides were added into the solution and well mixed. After centrifugating for 5 min at a speed of 1000 r/min, 300 μL of supernatant liquid and 300 μL of lower liquid were carefully pipetted into two γ countertubes, respectively. The logarithm of the radioactivity ratio of octanol to water was the logP value. The test was repeated four times for each fluorine-18-labeled peptide.
# [2] = mouse, in vivo
# Experimental: A nude with U87MG xenograft was injected with a dose of approximately 11.1 MBq (0.3 mCi) of ^18F-labeled peptides via the tail vein. The mouse was euthanized at 30 min after injection, the tumor was carefully excised, and the blood was collected. The tumor was cut into pieces and made into homogenates by mixing 200 μL normal saline. The mixture was centrifuged for 10 min at a speed of 12000 r/min. The supernatant liquid was carefully pipetted and transferred into an Amicon® Ultracentrifugal filter device for further centrifugation. The filtrate was injected into an HPLC column to analyze the in vivo stability of fluorine-18-labeled peptide.
# [3] = molecular target: T1, fibrin clots (Homo sapiens, UniProt P02671+P02675+P02679); experiment: Fluorine-18-labeled peptide binding affinity to fibrin clots; conditions: clots from 75 μL fibrinogen 2 mg/mL + 30 μL thrombin 2.5 U/mL; 100 μL tracer in PBS, 37°C, one hour, PBS washed three times, radioactive counter, four tubes, mean ± SD
# T1 sequence (P02671 36-629 limits assumed): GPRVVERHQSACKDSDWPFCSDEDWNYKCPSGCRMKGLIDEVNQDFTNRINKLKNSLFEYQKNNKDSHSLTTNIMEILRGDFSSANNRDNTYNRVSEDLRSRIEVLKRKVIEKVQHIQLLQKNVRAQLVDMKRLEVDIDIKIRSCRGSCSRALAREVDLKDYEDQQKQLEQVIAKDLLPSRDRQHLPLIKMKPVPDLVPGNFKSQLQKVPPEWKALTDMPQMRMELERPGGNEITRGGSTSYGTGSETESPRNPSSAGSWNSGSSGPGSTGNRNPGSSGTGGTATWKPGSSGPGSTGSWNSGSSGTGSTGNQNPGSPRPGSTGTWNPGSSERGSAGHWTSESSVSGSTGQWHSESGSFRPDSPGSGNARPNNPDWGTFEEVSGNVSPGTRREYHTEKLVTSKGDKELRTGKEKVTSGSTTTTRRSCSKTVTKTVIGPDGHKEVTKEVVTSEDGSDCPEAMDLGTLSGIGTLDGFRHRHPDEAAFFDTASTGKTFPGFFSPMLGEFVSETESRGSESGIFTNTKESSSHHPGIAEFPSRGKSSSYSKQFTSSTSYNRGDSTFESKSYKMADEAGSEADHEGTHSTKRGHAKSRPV
# T1 sequence (P02675 45-491 limits assumed): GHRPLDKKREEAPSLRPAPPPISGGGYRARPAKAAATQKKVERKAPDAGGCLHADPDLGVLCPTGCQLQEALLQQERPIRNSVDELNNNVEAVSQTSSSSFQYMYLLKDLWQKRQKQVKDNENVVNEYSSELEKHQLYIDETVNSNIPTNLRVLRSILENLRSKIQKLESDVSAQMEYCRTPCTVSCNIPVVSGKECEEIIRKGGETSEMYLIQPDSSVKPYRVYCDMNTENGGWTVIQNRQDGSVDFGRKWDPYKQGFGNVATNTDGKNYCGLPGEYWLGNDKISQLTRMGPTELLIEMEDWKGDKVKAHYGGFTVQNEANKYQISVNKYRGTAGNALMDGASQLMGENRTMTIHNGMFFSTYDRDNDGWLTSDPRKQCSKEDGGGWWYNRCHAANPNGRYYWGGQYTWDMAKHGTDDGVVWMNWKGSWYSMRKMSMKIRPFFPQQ
# T1 sequence (P02679 27-437 isoform P02679-2 limits assumed): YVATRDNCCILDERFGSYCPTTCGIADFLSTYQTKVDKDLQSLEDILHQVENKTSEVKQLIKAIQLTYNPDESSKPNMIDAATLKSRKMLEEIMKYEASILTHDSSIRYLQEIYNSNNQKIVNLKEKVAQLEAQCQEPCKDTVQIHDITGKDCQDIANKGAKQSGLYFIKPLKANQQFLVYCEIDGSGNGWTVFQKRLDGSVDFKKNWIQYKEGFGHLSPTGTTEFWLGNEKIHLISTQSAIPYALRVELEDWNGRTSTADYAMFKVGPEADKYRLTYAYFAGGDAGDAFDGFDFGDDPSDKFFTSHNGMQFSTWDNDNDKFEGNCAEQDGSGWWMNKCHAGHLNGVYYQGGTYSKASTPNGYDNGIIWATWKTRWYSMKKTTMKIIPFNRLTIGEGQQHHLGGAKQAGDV
# Experimental: As previously reported, to synthesize fibrin clots, 75 μL of fibrinogen solution (2 mg/mL) in 0.9% NaCl was added to four 1.5 mL EP tubes. 30 μL of a 2.5 U/mL thrombin solution in 0.9% NaCl was subsequently added to these tubes. The tubes were placed in the thermostatic oscillator at 37°C for four hours, and the gels representative of fibrin clots were formed in the tubes. 370 KBq (10 μCi) fluorine-18-labeled peptide was diluted in 1 ml PBS. 100 μL of the solution was added into each tube, respectively, and added into four empty tubes for reference. All tubes were incubated at 37°C for one hour. After that, the supernatant liquid was carefully pipetted. PBS was added and pipetted three times to remove any CREKA or peptides not bond to the fibrin clots. Finally, all tubes were measured by a CAPRAC®-R radioactive counter (Imaxeon) to obtain the bond-to-gross ratio.
# [4] = test system: U87MG cells; experiment: Cellular uptake test in U87MG cells; type: cell-based, human; conditions: for cellular uptake to U87MG cells after activation by MMP-2: radio medium mixed with activated MMP-2, compared with no activation; for cellular uptake percentage (ID%), peak / maximum, U87MG cells: without MMP-2 activation, serum-free DMEM, 500 μL/well, 2-120 min, PBS rinsed 3 times, γ counting, 4 wells per time point
# Experimental: (§1) U87MG cells and Caov3 cells were counted and uniformly inoculated into 24-well plates. The 24-well plates were marked, and cells were incubated for 24 hours in complete DMEM with 10% fetal bovine serum. Radio medium was prepared by adding 888 KBq (24 μCi) fluorine-18-labeled peptide into 15 mL DMEM without any serum. After incubation, the complete DMEM were poured and the radio medium were added in with 500 μL/well. The remainder medium were collected into 4 γ countertubes with 500 μL/tube to be representative of radioactivity gross. When the time arrived at 2, 5, 15, 30, 60, and 120 min, the radio medium were carefully pipetted out and the wells were carefully rinsed by 1 mL of PBS for 3 times. 4 wells were divided into a group corresponding to one time point. After the rinsing, SDS-NaOH solutions were added into the wells to dissociate the cells. The solutions were collected into γ countertubes to measure the radioactivity. The binding affinity was reflected by the radioactivity percentage, which was recorded as ID%, of the wells and the gross. The final results were recorded as the time-radioactivity curve including the six time points.
# (§2) Fluorine-18 labeled peptides binding affinities after activation were also measured by this protocol while the radio-medium were mixed with activated MMP-2 (Abcam).
# [5] = test system: Caov3 cells; experiment: Cellular uptake test in Caov3 cells; type: cell-based, human; conditions: radio medium mixed with activated MMP-2; compared with no activation
# Experimental: as §1, §2
# [6] = test system: U87MG xenograft; conditions: mouse, in vivo
# Experimental: Animal procedures were performed according to the guideline of the Animal Ethics Committee of the Southern Medical University. Approximately 10 × 10^6 U87MG cells and Caov3 cells were suspended in PBS and subcutaneously implanted in the right armpit of female BALB/c nude mice. Tumors were allowed to grow to a size of 0.5–1.5 cm in diameter.
# Small-animal PET/CTs were performed at the PET center of Southern Medical University Nanfang Hospital using a PET/CT scanner (Simens Inveon Micro-PET/CT). Tumor-bearing mice (n = 3/group) were intravenously injected with 5.55 MBq of ^18F-NOTA-LP or ^18F-NOTA-iCREKA under isoflurane anesthesia. A ten-minute static PET scan for each animal was acquired at 30, 60, and 120 min after the injection. 120 min dynamic scans were also obtained for ^18F-NOTA-LP and ^18F-NOTA-iCREKA (n = 2/group). The 3-dimensional ordered subset expectation maximization (3D-OSEM) algorithm was used for the PET reconstruction, and CT was applied for attenuation correction. Inveon Research Workplace (IRW) 3.0 software (Siemens, Germany) was used to measure the regions of interest (ROIs). The radioactivity concentrations were computed automatically, and the results were reflected by the unit of percent injected dose per gram (%ID/g). The maximum %ID/g of the ROIs was used for statistical analyses. Tumor-to-muscle (T/M) uptake ratios were calculated by dividing the radioactivity uptake in the tumor by the contralateral shoulder muscle.
Substance,logP value [1],"area under the time-radioactivity curve representative of defluorination, blood [2] [%]","area under the time-radioactivity curve representative of defluorination, tumor [2] [%]",fibrin-binding percentage (bond-to-gross ratio) [3],cellular uptake to U87MG cells after activation by MMP-2 [4],"cellular uptake percentage (ID%), peak / maximum, U87MG cells [4]",cellular uptake to Caov3 cells after activation by MMP-2 [5],kidney uptake [6],liver uptake [6],tumor-to-muscle (T/M) ratio on micro-PET [6],maximum T/M ratio on dynamic micro-PET [6]
CREKAPLGLAGRKKRRQRRRCK (NOTA) (Cys&Cys bridge) (disulfide) [^18F-NOTA-iCREKA],−2.51 ± 0.01,27.78,23.28,67.92 ± 6.71%,increased,23.90% and 16.05%,obviously increased,about 27 %ID/g,about 4 %ID/g,6.48 ± 0.50,
"CREKAPLGLAGRKKRRQRRRCK (NOTA) [^18F-NOTA-LP, Al^18F-labeled NOTA conjunct of the contrasted linear peptide LP]",−2.57 ± 0.02,,,67.09 ± 6.20%,increased,16.05% and 23.90%,slightly higher,,,2.08 ± 0.50,2.69 ± 0.35
"NOTA-CREKA [^18F-NOTA-CREKA, Al^18F-labeled NOTA conjunct of the pentapeptide CREKA]",−2.47 ± 0.05,,,69.31% ± 6.82,still no radioactivity,,nearly no radioactivity,,,,
